Our source for the Activity values is ChEMBL document CHEMBL3124887, “Synthesis and anti-inflammatory activity of aromatic glucosinolates” (2013).

The structures appear in SMILES notation.

Holding throughout (format): functional
For assay [1], the system named is THP-1. In words: Antiinflammatory activity in human THP1 cells assessed as inhibition of LPS-induced TNF-alpha release measured as TNF-alpha level at 15 uM after 4hrs by ELISA relative to control. (An ELISA detects its analyte on a solid surface through an enzyme-linked reagent.)
Assay [2] concerns THP-1. In words: Antiinflammatory activity in human THP1 cells assessed as inhibition of LPS-induced TNF-alpha release measured as TNF-alpha level at 10 uM after 4hrs by ELISA relative to control.
Assay [3] deals with THP-1. In words: Antiinflammatory activity in human THP1 cells assessed as inhibition of LPS-induced TNF-alpha release measured as TNF-alpha level at 5 uM after 4hrs by ELISA relative to control.
The subject of assay [4] is THP-1. In words: Antiinflammatory activity in human THP1 cells assessed as inhibition of LPS-induced TNF-alpha release measured as TNF-alpha level at 1 uM after 4hrs by ELISA relative to control.
Assay [5] relates to THP-1. In words: Antiinflammatory activity in human THP1 cells assessed as inhibition of LPS-induced TNF-alpha release measured as TNF-alpha level at 0.1 uM after 4hrs by ELISA relative to control.
Assay [6] concerns THP-1. In words: Antiinflammatory activity in human THP1 cells assessed as inhibition of LPS-induced TNF-alpha release measured as TNF-alpha level at 0.5 uM after 4hrs by ELISA relative to control.

Turning to `O=S(=O)([O-])O/N=C(\S[C@@H]1O[C@H](CO)[C@@H](O)[C@H](O)[C@H]1O)c1cccc(Cl)c1Cl.[K+]`, the Activity with THP-1 [1] was 114.17 pg/mL; with THP-1 [2], 157.09 pg/mL; with THP-1 [3] it was 162 pg/mL.

On to `O=S(=O)([O-])O/N=C(/Cc1ccccc1)S[C@@H]1O[C@H](CO)[C@@H](O)[C@H](O)[C@H]1O.[K+]`, for which the Activity with THP-1 [1] was found to be 201.87 pg/mL; in the assay with THP-1 [2] it was 206.65 pg/mL; in the assay on THP-1 [4], 248.4 pg/mL; with THP-1 [5], 275.48 pg/mL.

On to `O=S(=O)([O-])O/N=C(\S[C@@H]1O[C@H](CO)[C@@H](O)[C@H](O)[C@H]1O)c1ccc(Br)cc1.[K+]`, for which the Activity was 111.1 pg/mL in the assay with THP-1 [1], 122.04 pg/mL in the assay on THP-1 [2], 173.17 pg/mL in the assay with THP-1 [3] and 165.27 pg/mL in the assay with THP-1 [5].

Consider `O=S(=O)([O-])O/N=C(\S[C@@H]1O[C@H](CO)[C@@H](O)[C@H](O)[C@H]1O)c1ccccc1.[K+]`, for which the Activity in the assay on THP-1 [1] came out at 103.57 pg/mL; in the assay on THP-1 [6], 194.44 pg/mL; with THP-1 [2], 144.15 pg/mL; with THP-1 [3], 166.58 pg/mL; in the assay on THP-1 [5] it was 231.15 pg/mL.

For `O=S(=O)([O-])O/N=C(/C=C/c1ccccc1)S[C@@H]1O[C@H](CO)[C@@H](O)[C@H](O)[C@H]1O.[K+]`, the values for the Activity with THP-1 [1], in the assay on THP-1 [2] and with THP-1 [4] were 79.23 pg/mL, 122.91 pg/mL and 149.06 pg/mL, respectively.

For the molecule `COc1ccc(/C(=N/OS(=O)(=O)[O-])S[C@@H]2O[C@H](CO)[C@@H](O)[C@H](O)[C@H]2O)cc1OC.[K+]`, the Activity in the assay with THP-1 [1] was found to be 69.2 pg/mL; in the assay with THP-1 [6], 161.76 pg/mL; in the assay on THP-1 [2], 93.1 pg/mL; in the assay on THP-1 [4] it was 144.57 pg/mL; in the assay with THP-1 [3], 128.21 pg/mL.

As for `Oc1cc(O)c2c(c1)OC(c1ccc(O)c(O)c1)C(O)C2` (stereo unspecified) [CATECHIN], the Activity in the assay with THP-1 [1] is 255.94 pg/mL; with THP-1 [6], 303.98 pg/mL; in the assay on THP-1 [3] it was 282.65 pg/mL.

For `O=S(=O)([O-])O/N=C(/CCc1ccccc1)S[C@@H]1O[C@H](CO)[C@@H](O)[C@H](O)[C@H]1O.[K+]`, the Activity is 74.76 pg/mL with THP-1 [1], 96.86 pg/mL with THP-1 [2], 138.43 pg/mL in the assay on THP-1 [4] and 115.25 pg/mL in the assay on THP-1 [3].
